Data taken from US6403602B1 (priority 1997, dated 2002).
Structures can show the parent of a compound that is named as a salt. Where two headings read alike, the source gives them in different places.

How the values were obtained:
mu receptors = assay type: cell-based, guinea pig
[1] = test system: electrically stimulated guinea pig ileum; assay: tissue or blood; assay type: cell-based
mu opioid receptors = mu opioid receptors (Cavia porcellus, UniProt A0ACM8Q262); assay type: binding, guinea pig; conditions: read-out: Ki μ [^3H]DAMGO
Chain of mu opioid receptors (A0ACM8Q262 1-400): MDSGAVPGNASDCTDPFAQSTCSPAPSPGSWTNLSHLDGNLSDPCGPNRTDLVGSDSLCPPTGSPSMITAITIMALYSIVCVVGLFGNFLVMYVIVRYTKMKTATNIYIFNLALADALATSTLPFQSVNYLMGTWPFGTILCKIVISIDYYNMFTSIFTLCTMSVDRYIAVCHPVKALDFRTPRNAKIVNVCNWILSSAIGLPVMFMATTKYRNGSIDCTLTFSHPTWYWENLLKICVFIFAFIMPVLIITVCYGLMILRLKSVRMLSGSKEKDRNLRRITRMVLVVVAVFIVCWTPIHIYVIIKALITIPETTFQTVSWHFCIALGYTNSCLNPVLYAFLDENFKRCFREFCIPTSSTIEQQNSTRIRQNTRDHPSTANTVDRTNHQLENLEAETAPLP

delta receptors [2] = target: T1, delta receptors (Cavia porcellus, UniProt A0A286XTF2); assay: biochemical; assay type: binding, guinea pig
T1 construct: The brains were then homogenized in 50 mM Tris HCl, buffer pH 7.7, using a Polytron; from tissue; host or cells: guinea pig brain homogenate (membrane pellet)
T1 sequence (A0A286XTF2 1-366): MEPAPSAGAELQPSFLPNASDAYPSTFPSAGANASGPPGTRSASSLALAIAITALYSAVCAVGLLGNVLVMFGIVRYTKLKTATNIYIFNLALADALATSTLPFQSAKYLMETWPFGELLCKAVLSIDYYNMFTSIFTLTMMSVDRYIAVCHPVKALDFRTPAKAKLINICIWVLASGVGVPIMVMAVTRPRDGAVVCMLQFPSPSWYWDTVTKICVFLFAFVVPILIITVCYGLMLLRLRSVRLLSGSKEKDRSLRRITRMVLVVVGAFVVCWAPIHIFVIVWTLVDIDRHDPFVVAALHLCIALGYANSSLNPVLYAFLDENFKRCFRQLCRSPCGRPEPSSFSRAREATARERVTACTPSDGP

κ2 sites = assay type: binding, guinea pig
kappa3 receptors = assay type: binding, guinea pig; conditions: read-out: Ki κ3 [^3H]NalBzoH
[3] = test system: electrically stimulated mouse vas deferens; assay: tissue or blood; assay type: cell-based
delta receptors [4] = target: T2, delta receptors (Mus musculus, UniProt P32300); assay type: cell-based
T2 construct: The vas deferens from Swiss-Webster mice (30-35 g) were prepared as described by Hughes et al; from tissue; host or cells: mouse vas deferens (Swiss-Webster)
T2 sequence (P32300 whole entry): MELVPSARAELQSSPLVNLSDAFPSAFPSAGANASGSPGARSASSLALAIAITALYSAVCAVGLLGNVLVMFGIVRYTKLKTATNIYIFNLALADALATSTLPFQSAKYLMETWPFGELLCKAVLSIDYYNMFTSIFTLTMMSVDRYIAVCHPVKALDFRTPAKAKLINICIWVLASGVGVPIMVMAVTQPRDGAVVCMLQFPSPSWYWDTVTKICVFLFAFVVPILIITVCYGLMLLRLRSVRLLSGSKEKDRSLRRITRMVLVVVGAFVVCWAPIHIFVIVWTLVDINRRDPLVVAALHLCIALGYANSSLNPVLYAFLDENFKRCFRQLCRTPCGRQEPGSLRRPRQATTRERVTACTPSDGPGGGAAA

kappa receptors = target: T3, kappa receptors (Cavia porcellus, UniProt P41144); assay type: cell-based, guinea pig
T3 construct: The longitudinal muscle with the myenteric plexus attached was gently separated from the underlying circular muscle; from tissue; host or cells: guinea pig ileum longitudinal muscle with myenteric plexus
T3 sequence (P41144 whole entry): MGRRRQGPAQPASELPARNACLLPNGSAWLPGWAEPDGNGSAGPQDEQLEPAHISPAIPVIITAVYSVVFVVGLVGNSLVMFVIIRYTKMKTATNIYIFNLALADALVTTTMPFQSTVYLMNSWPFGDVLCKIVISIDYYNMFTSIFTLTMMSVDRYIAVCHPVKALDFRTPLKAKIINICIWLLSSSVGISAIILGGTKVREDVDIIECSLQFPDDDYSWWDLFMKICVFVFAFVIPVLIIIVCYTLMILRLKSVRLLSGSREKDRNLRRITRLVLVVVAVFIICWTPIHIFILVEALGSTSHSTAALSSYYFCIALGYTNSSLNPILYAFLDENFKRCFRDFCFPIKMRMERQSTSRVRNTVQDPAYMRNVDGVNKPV

[5] = read-out: Guinea Pig Ileum IC50
[6] = read-out: IC50 (nM), Guinea Pigs Ileum
[7] = read-out: IC50 (nM), Mouse Vas Deferens
[8] = read-out: Mouse Vas Deferens IC50
[9] = Cavia porcellus, read-out: Guinea Pig Ileum IC50 (nM)
[10] = Mus musculus, read-out: Mouse Vas Deferens IC50 (nM)

Compound | Guinea Pig Ileum DR with CTAP (mu receptors) | Guinea Pig Ileum Ke of CTAP (mu receptors) | IC50 [1, 5] | IC50 (κ2 sites) | Ki (kappa3 receptors) | Mouse Vas Deferens DR with Naltrindole (delta receptors [4]) | further results
3-O-benzoyl-7,8-dihydromorphine-6-O-sulfate [NIDA # 20,275] | 4.03 ± 1.51 | 37.64 ± 18.74 | 649 ± 131 nM | > 10000 nM | – | – | Ki (mu opioid receptors): 61.8 nM; Ki (delta receptors [2]; read-out: Ki δ [^3H]Cl-DPDPE): 1600 nM
CCC12CCN(CC3(O)CC3)C(Cc3ccc(O)cc31)C2(C)C (single isomer, unassigned; (-)) [(−)Bremazocine] | – | – | – | 2.2 nM | 0.1 nM | – | DR with CTAP (mu receptors): 0.83; IC50 [1, 6]: 0.067 nM; Ki (mu opioid receptors): 0.1 nM; Ki (delta receptors [2]; read-out: Ki δ [^3H]Cl-DPDPE): 0.3 nM
(−) Cyclazocine | 1.00 ± 0.00 | – | 1.05 nM | 17.3 nM | 0.2 nM | – | Ki (mu opioid receptors): 0.1 nM
Dynorphin A (1-17) | – | – | – | – | – | – | DR with CTAP (mu receptors): 1.52; Ke of CTAP (mu receptors): 209.89; IC50 [1, 6]: 0.95 nM; IC50 [3, 7]: 29.3 nM
COC(=O)/C=C/C(=O)N[C@@H]1CC[C@@]2(O)[C@H]3Cc4ccc(O)c5c4[C@@]2(CCN3CC2CC2)[C@H]1O5 [β-FNA-HCl] | – | – | – | 66.5 nM | 0.8 nM | – | Ki (mu opioid receptors): 0.4 nM
CN1CC[C@]23c4c5ccc(OS(=O)(=O)O)c4O[C@H]2[C@@H](O)C=C[C@H]3[C@H]1C5 [NIDA # 20,268, morphine-3-O-sulfate] | – | – | – | > 10000 nM | 1690 nM | – | Ki (delta receptors [2]): > 10000 nM
CCC12CCN(CC3CC3)C(C(=O)c3ccc(O)cc31)C2C (single isomer, unassigned; (+)) [(+)EKC-sulfonate] | – | – | – | 133 nM | 5.3 nM | – | Ki (mu opioid receptors): 1.1 nM; Ki (delta receptors [2]; read-out: Ki δ, experiment done with [^3H]DPDPE): 2.6 nM
Dynorphin B-OH | – | – | – | 70 nM | 14.2 nM | – | –
Dynorphin (1-17)-OH | – | – | – | 29.5 nM | 5.1 nM | – | –
Dynorphin (1-13)-NH2 | – | – | – | 24.6 nM | 4.1 nM | – | –
Dynorphin(1-9)-OH | 1.13 | 357.14 | 4.69 nM | 324 nM | 20.2 nM | 5.71 | IC50 [3, 8]: 12.2 nM; Mouse Vas Deferens Ke of Naltrindole (delta receptors [4]): 0.281
CC1(C)SSC(C)(C)[C@@H](NC(=O)[C@@H](N)Cc2ccc(O)cc2)C(=O)NCC(=O)N[C@@H](Cc2ccc(Cl)cc2)C(=O)N[C@H]1C(=O)O [DPDPE-Cl] | – | – | – | > 10000 nM | 1030 nM | – | Ki (delta receptors [2]; read-out: Ki δ [^3H]Cl-DPDPE): 0.3 nM
C[N+]1(C)CC[C@]23c4c5ccc(OC(=O)c6ccccc6)c4O[C@H]2[C@@H](OS(=O)(=O)[O-])C=C[C@H]3[C@H]1C5 [NIDA # 20,274, 3-O-Benzoyl-N-methylmorphinium-6-O-sulfate] | – | – | – | > 10000 nM | > 10000 nM | – | inhibition at 100 µM ([1]; Cavia porcellus, read-out: Guinea pig ileum maximum inhibition): 38%; Ki (delta receptors [2]): > 10000 nM
CCC12CCN(CC3(O)CC3)C(Cc3ccc(O)cc31)C2(C)C (single isomer, unassigned; (+)) [(+)Bremazocine] | – | – | – | 11.2 nM | 0.1 nM | – | Ki (mu opioid receptors): 0.1 nM; Ki (delta receptors [2]; read-out: Ki δ [^3H]Cl-DPDPE): 0.7 nM
O=C1CC[C@@]2(O)[C@H]3Cc4ccc(O)c5c4[C@@]2(CCN3CC2CC2)[C@H]1O5 [Naltrexone-HCl] | – | – | – | 230 nM | 3.8 nM | – | –
Oc1ccc2c3c1O[C@H]1[C@@H](O)C=C[C@H]4[C@@H](C2)NCC[C@@]341 [Normorphine] | 3.02 | 50.25 | – | – | – | 1.06 | Guinea Pig Ileum Ratio (CTAP) (mu receptors): 0.500; IC50 [1, 9]: 47.3 nM; Guinea Pig Ileum DR with Nor-BNI (kappa receptors): 1.90; Guinea Pig Ileum Ke of Nor-BNI (kappa receptors): 26.47; Guinea Pig Ileum Ratio (Nor-BNI) (kappa receptors): 0.002; IC50 [3, 10]: 512 nM; Mouse Vas Deferens Ke of Naltrindole (delta receptors [4]): 8.38 ± 0; Mouse Vas Deferens Ratio (Naltrindole) (delta receptors [4]): 0.0025
CN1CC[C@]23c4c5ccc(O)c4O[C@H]2[C@@H](O)CC[C@H]3[C@H]1C5 [Dihydromorphine, 7,8-Dihydromorphine] | 12.46 | 17.46 | – | – | – | – | IC50 [1, 9]: 42.4 nM; IC50 [3, 10]: 8.11 nM
Leu-Enkephalin | 4.63 | 29.38 | 87.3 nM | > 10000 nM | 1670 nM | 28.07 | Guinea Pig Ileum Ratio (CTAP) (mu receptors): 0.659; Guinea Pig Ileum DR with Nor-BNI (kappa receptors): 1.94; Guinea Pig Ileum Ke of Nor-BNI (kappa receptors): 21.41; Guinea Pig Ileum Ratio (Nor-BNI) (kappa receptors): 0.002; IC50 [3, 8]: 7.38 nM; Mouse Vas Deferens Ke of Naltrindole (delta receptors [4]): 0.038; Mouse Vas Deferens Ratio (Naltrindole) (delta receptors [4]): 0.577
CC[C@H](C)[C@H](NC(=O)[C@H](C)NC(=O)[C@H](CC(N)=O)NC(=O)[C@H](CCCCN)NC(=O)[C@H](Cc1ccccc1)NC(=O)[C@H](CC(C)C)NC(=O)[C@@H](NC(=O)[C@@H](NC(=O)[C@H](CC(C)C)NC(=O)[C@@H]1CCCN1C(=O)[C@@H](NC(=O)[C@H](CCC(N)=O)NC(=O)[C@H](CO)NC(=O)[C@H](CCCCN)NC(=O)[C@H](CCC(=O)O)NC(=O)[C@H](CO)NC(=O)[C@@H](NC(=O)[C@H](CCSC)NC(=O)[C@H](Cc1ccccc1)NC(=O)CNC(=O)CNC(=O)[C@@H](N)Cc1ccc(O)cc1)[C@@H](C)O)[C@@H](C)O)C(C)C)[C@@H](C)O)C(=O)N[C@H](C(=O)N[C@@H](CCCCN)C(=O)N[C@@H](CC(N)=O)C(=O)N[C@@H](C)C(=O)N[C@@H](Cc1ccc(O)cc1)C(=O)N[C@@H](CCCCN)C(=O)N[C@@H](CCCCN)C(=O)NCC(=O)N[C@@H](CCC(=O)O)C(=O)O)[C@@H](C)CC [β-Endorphin-OH] | 5.86 | 20.87 | 59.4 nM | 2050 nM | 14.5 nM | 7.98 | Guinea Pig Ileum DR with Nor-BNI (kappa receptors): 4.24; Guinea Pig Ileum Ke of Nor-BNI (kappa receptors): 6.98; IC50 [3, 8]: 68 nM; Mouse Vas Deferens Ke of Naltrindole (delta receptors [4]): 0.156 ± 0.05
Dynorphin B | – | – | – | – | – | – | DR with CTAP (mu receptors): 1.08; Ke of CTAP (mu receptors): 344.83; IC50 [1, 6]: 4.4 nM; IC50 [3, 7]: 39.1 nM
Dynorphin (1-13)-OH | – | – | – | 180 nM | 15.4 nM | – | –
Dynorphin (1-8) | – | – | – | 1760 nM | 12.9 nM | – | DR with CTAP (mu receptors): 0.98; IC50 [1, 6]: 71.8 nM; DR with Nor-BNI (kappa receptors): 18.44; Ke of Nor-BNI (kappa receptors): 1.21; Ratio (after Ke of Nor-BNI) (kappa receptors): 0.050; IC50 [3, 7]: 56.4 nM; DR with Naltrindole (delta receptors [4]): 2.77; Ke of Naltrindole (delta receptors [4]): 0.64; Ratio (after Ke of Naltrindole) (delta receptors [4]): 0.033
Met-Enkephalin | 5.08± | 24.50 | 27.4 nM | > 10000 nM | 277 nM | 13.63 | IC50 [3, 8]: 1.52 nM; Mouse Vas Deferens Ke of Naltrindole (delta receptors [4]): 0.082
C=CCN1CC[C@]23c4c5ccc(O)c4O[C@H]2[C@@H](O)C=C[C@H]3[C@H]1C5 [Nalorphine] | 0.90 | – | – | – | – | – | IC50 [1, 9]: 29.2 nM; Guinea Pig Ileum DR with Nor-BNI (kappa receptors): 643.9; Guinea Pig Ileum Ke of Nor-BNI (kappa receptors): 0.03
3-O-Acetyl-7,8-dihydromorphine-6-O-sulfate [NIDA # 20,265] | 6.03 ± 0.97 | 20.25 ± 3.92 | 37.7 ± 6.55 nM | > 10000 nM | – | 0.924 ± 0.64 | IC50 [3, 8]: 1110 nM; Ki (mu opioid receptors): 13.7 nM; Ki (delta receptors [2]; read-out: Ki δ [^3H]Cl-DPDPE): 325 nM
[D-Pen^3.5-enkephalin] [DPDPE-OH] | 5.64 | 25.83 | 4130 nM | > 10000 nM | > 1000 nM | 53.11 | Guinea Pig Ileum Ratio (CTAP) (mu receptors): 0.980; Guinea Pig Ileum DR with Nor-BNI (kappa receptors): 1.54; Guinea Pig Ileum Ke of Nor-BNI (kappa receptors): 50.68; Guinea Pig Ileum Ratio (Nor-BNI) (kappa receptors): 0.001; Mouse Vas Deferens Ke of Naltrindole (delta receptors [4]): 0.021; Mouse Vas Deferens Ratio (Naltrindole) (delta receptors [4]): 1.000
COc1ccc2c3c1O[C@H]1C(=O)CC[C@@]4(O)[C@@H](C2)N(C)CC[C@]314 [Oxycodone] | 2.30 | 78.66 | – | – | – | 0.79 | Guinea Pig Ileum Ratio (CTAP) (mu receptors): 0.322; IC50 [1, 9]: 324 nM; Guinea Pig Ileum DR with Nor-BNI (kappa receptors): 1.45; Guinea Pig Ileum Ke of Nor-BNI (kappa receptors): 45.84; Guinea Pig Ileum Ratio (Nor-BNI) (kappa receptors): 0.001; IC50 [3, 10]: 6330 nM
C[C@@H](NC(=O)[C@@H](N)Cc1ccc(O)cc1)C(=O)NCC(=O)N(C)[C@@H](Cc1ccccc1)C(=O)NCCO [DAMGO, [D-Ala^2,N-Me-Phe^4,Gly-ol^5]-enkephalin] | 4.98 | 25.31 | 8.25 nM | – | – | 0.93 | Guinea Pig Ileum Ratio (CTAP) (mu receptors): 1.000; Guinea Pig Ileum DR with Nor-BNI (kappa receptors): 1.74; Guinea Pig Ileum Ke of Nor-BNI (kappa receptors): 27.67; Guinea Pig Ileum Ratio (Nor-BNI) (kappa receptors): 0.002; IC50 [3, 8]: 178 nM
CC(C)C[C@@H](NC(=O)[C@H](Cc1ccccc1)NC(=O)CNC(=O)[C@@H](C)NC(=O)[C@@H](N)Cc1ccc(O)cc1)C(=O)O [DADLE-OH] | 4.33 | 30.58 | 13.4 nM | > 10000 nM | 692 nM | – | Guinea Pig Ileum DR with Nor-BNI (kappa receptors): 1.53; Guinea Pig Ileum Ke of Nor-BNI (kappa receptors): 38.13; IC50 [3, 8]: 1.6 nM; Ki (delta receptors [2]): 0.3 nM
